Assay [1] addresses T1, Serine/threonine-protein kinase 3 (Homo sapiens, UniProt Q13188).
T1 sequence (Q13188 whole entry): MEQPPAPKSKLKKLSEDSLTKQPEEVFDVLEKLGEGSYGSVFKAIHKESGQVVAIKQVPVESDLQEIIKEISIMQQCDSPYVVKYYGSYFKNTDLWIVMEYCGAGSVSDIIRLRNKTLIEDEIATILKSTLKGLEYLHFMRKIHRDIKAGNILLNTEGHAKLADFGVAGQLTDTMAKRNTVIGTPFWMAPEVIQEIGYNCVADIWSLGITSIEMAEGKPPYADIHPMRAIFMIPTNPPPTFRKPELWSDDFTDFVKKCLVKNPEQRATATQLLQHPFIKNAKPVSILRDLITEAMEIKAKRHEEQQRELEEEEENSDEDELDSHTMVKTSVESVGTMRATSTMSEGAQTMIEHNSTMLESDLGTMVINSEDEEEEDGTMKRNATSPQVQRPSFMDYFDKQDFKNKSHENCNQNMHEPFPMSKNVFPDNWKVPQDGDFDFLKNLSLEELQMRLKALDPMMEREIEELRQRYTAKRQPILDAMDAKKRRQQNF

For assay [2], the target named is T2, Serine/threonine-protein kinase Chk1 (Homo sapiens, UniProt O14757).
T2 sequence (O14757 whole entry): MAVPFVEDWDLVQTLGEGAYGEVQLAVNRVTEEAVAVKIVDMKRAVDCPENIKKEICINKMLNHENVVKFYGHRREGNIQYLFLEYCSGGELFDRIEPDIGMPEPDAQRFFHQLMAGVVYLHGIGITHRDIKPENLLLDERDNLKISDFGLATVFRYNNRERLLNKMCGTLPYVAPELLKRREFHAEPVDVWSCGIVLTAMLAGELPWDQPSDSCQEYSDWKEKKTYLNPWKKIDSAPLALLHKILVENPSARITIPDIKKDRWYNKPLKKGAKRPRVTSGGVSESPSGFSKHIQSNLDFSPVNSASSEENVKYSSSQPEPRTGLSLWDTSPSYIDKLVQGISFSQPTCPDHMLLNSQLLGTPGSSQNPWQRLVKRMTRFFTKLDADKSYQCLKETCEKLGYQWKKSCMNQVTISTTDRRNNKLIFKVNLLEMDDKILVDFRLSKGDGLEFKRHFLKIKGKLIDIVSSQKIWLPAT

The target in assay [3] is T3, RNA cytidine acetyltransferase (Homo sapiens, UniProt Q9H0A0).
T3 sequence (Q9H0A0 whole entry): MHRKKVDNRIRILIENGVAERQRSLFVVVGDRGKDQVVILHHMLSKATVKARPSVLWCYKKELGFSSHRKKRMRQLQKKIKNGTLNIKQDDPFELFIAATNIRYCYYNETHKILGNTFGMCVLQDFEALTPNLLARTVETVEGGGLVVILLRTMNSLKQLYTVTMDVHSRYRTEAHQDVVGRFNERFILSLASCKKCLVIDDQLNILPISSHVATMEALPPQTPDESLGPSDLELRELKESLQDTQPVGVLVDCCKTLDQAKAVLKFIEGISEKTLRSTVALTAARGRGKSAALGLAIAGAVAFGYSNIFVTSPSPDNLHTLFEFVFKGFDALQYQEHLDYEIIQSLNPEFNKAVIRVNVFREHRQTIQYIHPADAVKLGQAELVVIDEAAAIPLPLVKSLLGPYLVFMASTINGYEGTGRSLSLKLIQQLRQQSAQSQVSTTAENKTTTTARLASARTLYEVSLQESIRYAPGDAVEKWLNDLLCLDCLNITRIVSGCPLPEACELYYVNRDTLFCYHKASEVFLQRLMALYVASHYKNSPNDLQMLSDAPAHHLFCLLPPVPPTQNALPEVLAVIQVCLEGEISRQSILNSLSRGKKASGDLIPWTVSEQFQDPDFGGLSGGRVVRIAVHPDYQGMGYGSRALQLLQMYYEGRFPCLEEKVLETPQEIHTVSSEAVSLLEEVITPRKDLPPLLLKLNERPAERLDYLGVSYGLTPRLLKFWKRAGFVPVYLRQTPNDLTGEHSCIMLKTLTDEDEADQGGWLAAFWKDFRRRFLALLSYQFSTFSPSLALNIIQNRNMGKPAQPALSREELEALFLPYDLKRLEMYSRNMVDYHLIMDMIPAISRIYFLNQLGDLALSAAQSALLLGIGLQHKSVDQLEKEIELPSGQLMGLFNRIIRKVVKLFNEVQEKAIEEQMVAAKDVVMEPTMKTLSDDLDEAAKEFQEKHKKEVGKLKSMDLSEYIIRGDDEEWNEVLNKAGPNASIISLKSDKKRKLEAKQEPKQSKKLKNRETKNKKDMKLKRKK

The target of assay [4] is DNA topoisomerase 2-alpha (Homo sapiens, UniProt P11388).
Assay [5] concerns the target Tyrosine-protein kinase BTK (Homo sapiens, UniProt Q06187).
The target in assay [6] is Protein kinase C beta type (Homo sapiens, UniProt P05771).
Assay [7] deals with Cyclin-dependent kinase 13 (Homo sapiens, UniProt Q14004).
In a further assay the target is Ephrin type-A receptor 2 (Homo sapiens, UniProt P29317).
For a further assay, the target named is Activin receptor type-2B (Homo sapiens, UniProt Q13705).

Active and inactive are the calls of the source. For most assays here, no stated cut-off is given here; in the data, actives have a measured Kd and inactives only a lower limit.

In ChEMBL document CHEMBL3991601, “The target landscape of clinical kinase drugs” (Science, 2017) one finds Kd data, which are given here for 11 molecules.

One may read the Kd as the equilibrium constant for the complex coming apart.

Sequence of Cyclin-dependent kinase 13 (Q14004 whole entry): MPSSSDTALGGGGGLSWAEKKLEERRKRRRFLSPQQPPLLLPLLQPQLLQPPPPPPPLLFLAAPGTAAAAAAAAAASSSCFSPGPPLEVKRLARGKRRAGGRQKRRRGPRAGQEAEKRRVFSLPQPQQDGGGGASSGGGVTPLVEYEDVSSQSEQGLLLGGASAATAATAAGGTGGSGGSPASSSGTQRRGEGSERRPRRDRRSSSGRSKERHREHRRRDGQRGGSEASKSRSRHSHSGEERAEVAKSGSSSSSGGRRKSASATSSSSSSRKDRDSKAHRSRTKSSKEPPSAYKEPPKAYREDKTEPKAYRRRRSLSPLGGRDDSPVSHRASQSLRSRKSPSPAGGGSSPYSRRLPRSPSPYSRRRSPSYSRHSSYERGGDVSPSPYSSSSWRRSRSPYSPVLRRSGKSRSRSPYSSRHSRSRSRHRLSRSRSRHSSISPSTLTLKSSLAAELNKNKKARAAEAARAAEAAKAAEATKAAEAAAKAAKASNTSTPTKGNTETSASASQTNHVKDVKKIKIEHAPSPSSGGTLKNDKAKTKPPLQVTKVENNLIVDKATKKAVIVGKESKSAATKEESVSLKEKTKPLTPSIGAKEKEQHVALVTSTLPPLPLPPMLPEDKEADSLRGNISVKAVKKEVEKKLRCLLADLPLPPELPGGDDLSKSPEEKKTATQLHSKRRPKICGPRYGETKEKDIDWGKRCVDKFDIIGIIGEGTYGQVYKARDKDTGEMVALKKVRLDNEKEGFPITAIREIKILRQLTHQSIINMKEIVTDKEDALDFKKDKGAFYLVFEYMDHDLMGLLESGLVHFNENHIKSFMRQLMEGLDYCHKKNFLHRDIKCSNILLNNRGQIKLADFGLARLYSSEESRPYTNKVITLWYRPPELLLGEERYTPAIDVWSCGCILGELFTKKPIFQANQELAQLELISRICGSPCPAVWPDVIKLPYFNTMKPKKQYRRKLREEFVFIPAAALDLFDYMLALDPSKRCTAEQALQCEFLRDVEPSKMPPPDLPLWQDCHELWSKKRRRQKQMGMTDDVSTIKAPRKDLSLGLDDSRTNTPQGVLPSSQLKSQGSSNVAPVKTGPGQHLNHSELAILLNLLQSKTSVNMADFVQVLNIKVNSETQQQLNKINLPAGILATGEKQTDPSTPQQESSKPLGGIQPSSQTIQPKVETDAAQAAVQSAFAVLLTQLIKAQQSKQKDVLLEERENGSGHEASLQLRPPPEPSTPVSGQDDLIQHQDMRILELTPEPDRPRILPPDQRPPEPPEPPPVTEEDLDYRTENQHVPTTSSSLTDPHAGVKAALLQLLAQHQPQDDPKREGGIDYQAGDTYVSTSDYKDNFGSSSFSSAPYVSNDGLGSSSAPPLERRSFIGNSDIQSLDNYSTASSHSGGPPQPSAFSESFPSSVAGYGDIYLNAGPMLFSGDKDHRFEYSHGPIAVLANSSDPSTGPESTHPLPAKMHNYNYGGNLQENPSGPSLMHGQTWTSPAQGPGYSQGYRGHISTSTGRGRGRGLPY
Sequence of DNA topoisomerase 2-alpha (P11388 whole entry): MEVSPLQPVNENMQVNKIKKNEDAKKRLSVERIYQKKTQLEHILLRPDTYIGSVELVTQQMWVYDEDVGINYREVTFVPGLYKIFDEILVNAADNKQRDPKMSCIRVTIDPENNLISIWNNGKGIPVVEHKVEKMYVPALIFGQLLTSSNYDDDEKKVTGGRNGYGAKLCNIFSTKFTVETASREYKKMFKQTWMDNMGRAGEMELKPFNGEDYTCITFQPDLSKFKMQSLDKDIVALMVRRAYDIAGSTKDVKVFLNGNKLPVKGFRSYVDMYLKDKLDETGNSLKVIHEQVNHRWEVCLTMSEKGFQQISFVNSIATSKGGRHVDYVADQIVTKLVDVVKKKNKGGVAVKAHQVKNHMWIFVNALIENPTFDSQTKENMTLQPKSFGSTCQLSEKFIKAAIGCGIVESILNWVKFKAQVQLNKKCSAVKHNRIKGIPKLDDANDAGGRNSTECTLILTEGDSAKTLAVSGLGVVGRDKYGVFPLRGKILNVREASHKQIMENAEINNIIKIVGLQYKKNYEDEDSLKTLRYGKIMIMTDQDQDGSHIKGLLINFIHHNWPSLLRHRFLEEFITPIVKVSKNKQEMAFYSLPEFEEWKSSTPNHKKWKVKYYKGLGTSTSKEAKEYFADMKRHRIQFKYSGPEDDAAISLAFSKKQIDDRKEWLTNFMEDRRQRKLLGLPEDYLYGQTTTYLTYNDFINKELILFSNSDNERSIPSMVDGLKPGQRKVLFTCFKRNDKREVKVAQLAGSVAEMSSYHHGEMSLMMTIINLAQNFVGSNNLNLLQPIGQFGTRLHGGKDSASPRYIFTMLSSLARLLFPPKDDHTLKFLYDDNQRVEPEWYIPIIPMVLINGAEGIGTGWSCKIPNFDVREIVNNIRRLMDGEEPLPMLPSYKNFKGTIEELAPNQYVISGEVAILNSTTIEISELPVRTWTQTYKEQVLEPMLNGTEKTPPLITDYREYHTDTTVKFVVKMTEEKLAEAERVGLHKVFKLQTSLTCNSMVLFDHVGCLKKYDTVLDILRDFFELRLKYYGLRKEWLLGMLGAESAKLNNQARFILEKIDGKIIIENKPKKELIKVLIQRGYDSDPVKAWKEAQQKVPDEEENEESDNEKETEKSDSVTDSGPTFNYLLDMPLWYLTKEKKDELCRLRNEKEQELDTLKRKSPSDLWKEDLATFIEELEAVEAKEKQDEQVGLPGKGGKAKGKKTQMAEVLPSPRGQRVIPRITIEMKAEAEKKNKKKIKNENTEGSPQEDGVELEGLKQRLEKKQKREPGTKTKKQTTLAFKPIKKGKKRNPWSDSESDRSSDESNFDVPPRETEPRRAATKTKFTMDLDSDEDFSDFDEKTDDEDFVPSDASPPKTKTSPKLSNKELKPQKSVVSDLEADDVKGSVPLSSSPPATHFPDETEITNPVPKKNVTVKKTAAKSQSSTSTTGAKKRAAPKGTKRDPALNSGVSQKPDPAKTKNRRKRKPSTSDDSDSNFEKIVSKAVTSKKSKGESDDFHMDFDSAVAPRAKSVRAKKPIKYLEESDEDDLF
Sequence of Activin receptor type-2B (Q13705 whole entry): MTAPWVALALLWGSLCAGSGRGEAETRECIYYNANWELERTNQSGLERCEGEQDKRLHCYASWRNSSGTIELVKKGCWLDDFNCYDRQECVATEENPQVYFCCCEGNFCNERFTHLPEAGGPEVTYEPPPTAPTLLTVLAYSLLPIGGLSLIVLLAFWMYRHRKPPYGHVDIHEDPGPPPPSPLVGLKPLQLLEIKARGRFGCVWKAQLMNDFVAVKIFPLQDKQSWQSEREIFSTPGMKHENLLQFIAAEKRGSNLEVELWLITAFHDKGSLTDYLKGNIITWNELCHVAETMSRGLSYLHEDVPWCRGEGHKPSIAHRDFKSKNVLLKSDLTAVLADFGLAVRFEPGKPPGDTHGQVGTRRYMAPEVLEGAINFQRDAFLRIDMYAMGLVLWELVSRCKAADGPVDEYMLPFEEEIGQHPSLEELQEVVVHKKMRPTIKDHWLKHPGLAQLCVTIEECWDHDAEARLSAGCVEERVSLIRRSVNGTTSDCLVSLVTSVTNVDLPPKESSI
Sequence of Protein kinase C beta type (P05771 whole entry): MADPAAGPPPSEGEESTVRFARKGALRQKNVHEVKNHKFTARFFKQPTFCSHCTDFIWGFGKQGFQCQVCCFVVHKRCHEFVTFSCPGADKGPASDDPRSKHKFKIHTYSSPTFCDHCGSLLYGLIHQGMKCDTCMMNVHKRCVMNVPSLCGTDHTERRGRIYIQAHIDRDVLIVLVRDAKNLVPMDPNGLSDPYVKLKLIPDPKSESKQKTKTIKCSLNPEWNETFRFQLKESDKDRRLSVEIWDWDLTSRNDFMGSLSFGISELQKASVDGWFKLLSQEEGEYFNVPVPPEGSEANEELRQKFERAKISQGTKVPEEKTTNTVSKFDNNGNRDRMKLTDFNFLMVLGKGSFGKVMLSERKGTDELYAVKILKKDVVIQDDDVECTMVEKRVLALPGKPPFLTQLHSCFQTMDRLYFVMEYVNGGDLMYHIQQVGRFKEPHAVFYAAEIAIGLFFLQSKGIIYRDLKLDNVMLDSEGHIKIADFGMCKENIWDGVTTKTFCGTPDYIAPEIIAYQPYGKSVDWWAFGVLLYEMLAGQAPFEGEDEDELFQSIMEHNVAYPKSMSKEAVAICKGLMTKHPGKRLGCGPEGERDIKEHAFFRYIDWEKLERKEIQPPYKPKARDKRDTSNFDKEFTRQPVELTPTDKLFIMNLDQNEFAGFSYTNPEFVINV
Sequence of Tyrosine-protein kinase BTK (Q06187 whole entry): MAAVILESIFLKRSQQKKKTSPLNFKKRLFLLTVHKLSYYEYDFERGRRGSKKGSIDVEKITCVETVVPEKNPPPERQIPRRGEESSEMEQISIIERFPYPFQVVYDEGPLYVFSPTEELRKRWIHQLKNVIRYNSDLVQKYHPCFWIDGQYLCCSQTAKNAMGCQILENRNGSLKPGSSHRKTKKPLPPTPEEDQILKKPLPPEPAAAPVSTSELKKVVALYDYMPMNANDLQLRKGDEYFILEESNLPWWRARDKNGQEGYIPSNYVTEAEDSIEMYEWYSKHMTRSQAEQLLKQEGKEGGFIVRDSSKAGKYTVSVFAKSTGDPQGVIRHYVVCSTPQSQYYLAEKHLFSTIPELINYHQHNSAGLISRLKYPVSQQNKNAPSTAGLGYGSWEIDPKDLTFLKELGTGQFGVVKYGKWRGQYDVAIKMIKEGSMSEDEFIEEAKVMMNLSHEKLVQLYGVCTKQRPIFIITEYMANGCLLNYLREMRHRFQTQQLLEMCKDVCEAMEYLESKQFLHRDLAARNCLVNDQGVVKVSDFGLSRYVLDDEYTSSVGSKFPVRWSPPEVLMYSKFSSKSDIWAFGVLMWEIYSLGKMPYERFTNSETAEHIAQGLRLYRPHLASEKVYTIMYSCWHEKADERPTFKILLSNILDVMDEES

As to `CNC(=O)c1cc(Oc2ccc(NC(=O)Nc3ccc(Cl)c(C(F)(F)F)c3)c(F)c2)ccn1` [REGORAFENIB], the Kd in assay [1], in [2], in [3], in [4], in [5] and in assay [6] was > 30 µM (inactive) in each case. Moreover, the results for the Kd (in assay [7]; at Ephrin type-A receptor 2; on Activin receptor type-2B) were > 30 µM (inactive), 0.832 µM (active) and > 30 µM (inactive), respectively.

Consider `Cc1ccc(-n2nc(C(C)(C)C)cc2NC(=O)NCc2cc(F)ccc2Oc2ccc3c(cnn3CCO)c2)cc1` [PEXMETINIB], for which the Kd in assay [1], in [2], in assay [3], in assay [4], in assay [5] and in assay [6] was > 30 µM (inactive) each time. Further, the values for the Kd (in [7]; on Ephrin type-A receptor 2; at Activin receptor type-2B) were > 30 µM (inactive), 2.56 µM (active) and > 30 µM (inactive), respectively.

Take `CCN1CCN(Cc2ccc(-c3cc4c(N[C@H](C)c5ccccc5)ncnc4[nH]3)cc2)CC1` [AEE-788]: the Kd in assay [1], in assay [2], in assay [3], in [4], in assay [5] and in assay [6] was > 30 µM (inactive) in each case. Moreover, the Kd (in [7]; at Ephrin type-A receptor 2; at Activin receptor type-2B) was > 30 µM (inactive) each time.

In the case of `CN(C)C(=O)c1cc2cnc(Nc3ccc(N4CCNCC4)cn3)nc2n1C1CCCC1` [RIBOCICLIB], the Kd in assay [1], in [2], in [3], in [4], in assay [5] and in assay [6] was > 30 µM (inactive) throughout. Also, the Kd (in assay [7]; on Ephrin type-A receptor 2; on Activin receptor type-2B) was > 30 µM (inactive) each time.

For `COCCNCc1ccc(-c2cc3nccc(Oc4ccc(NC(=S)NC(=O)Cc5ccc(F)cc5)cc4F)c3s2)nc1` [GLESATINIB], the Kd in assay [1], in assay [2], in assay [3], in [4], in assay [5] and in [6] was > 30 µM (inactive) in each case. Moreover, the Kd (in [7]; on Ephrin type-A receptor 2; at Activin receptor type-2B) was > 30 µM (inactive) in each case.

For the molecule `Cn1cc(-c2ccc3nnc(C(F)(F)c4ccc5ncccc5c4)n3n2)cn1` [JNJ-38877605], the Kd in [1], in [2], in assay [3], in assay [4], in [5] and in [6] was > 30 µM (inactive) throughout. Besides, the Kd (in assay [7]; at Ephrin type-A receptor 2; on Activin receptor type-2B) was > 30 µM (inactive) in each case.

As to `CC[C@H](Nc1ncnc2[nH]cnc12)c1nc2cccc(F)c2c(=O)n1-c1ccccc1` [IDELALISIB], the Kd in assay [1], in [2], in assay [3], in assay [4], in assay [5] and in [6] was > 30 µM (inactive) each time. Moreover, the Kd (in assay [7]; on Ephrin type-A receptor 2; on Activin receptor type-2B) was > 30 µM (inactive) in each case.

On to `CN1CC[C@@H](c2c(O)cc(O)c3c(=O)cc(-c4ccccc4Cl)oc23)[C@@H]1CO`, for which the Kd in [1], in [2], in assay [3], in assay [4], in [5] and in assay [6] was > 30 µM (inactive) in each case. The Kd (in assay [7]; at Ephrin type-A receptor 2; at Activin receptor type-2B) was > 30 µM (inactive) each time.

Consider `CN1N=C(N)c2cn([C@@H]3O[C@H](COP(=O)(O)O)[C@@H](O)[C@H]3O)c3ncnc1c23` [TRICIRIBINE PHOSPHATE], for which the Kd in assay [1], in assay [2], in assay [3], in [4], in assay [5] and in [6] was > 30 µM (inactive) each time. The Kd (in [7]; at Ephrin type-A receptor 2; at Activin receptor type-2B) was > 30 µM (inactive) throughout.

As for `O=C(c1ccc(F)c(F)c1Nc1ccc(I)cc1F)N1CC(O)([C@@H]2CCCCN2)C1` [COBIMETINIB], the Kd in [1], in [2], in assay [3], in assay [4], in [5] and in assay [6] was > 30 µM (inactive) in each case. Further, the Kd (in assay [7]; at Ephrin type-A receptor 2; on Activin receptor type-2B) was > 30 µM (inactive) throughout.

Turning to `Cc1cc(-c2cc(O)ccc2Cl)cc2nnc(Nc3ccc(OCCN4CCCC4)cc3)nc12`, the Kd in assay [1], in assay [2], in [3], in assay [4], in [5] and in assay [6] was > 30 µM (inactive) each time. Moreover, the Kd was > 30 µM (inactive) in assay [7], 0.001 µM (active) on Ephrin type-A receptor 2 and > 30 µM (inactive) at Activin receptor type-2B.
